What was measured:
[1] = blood–brain distribution and PK of SYS18 in rats after intraperitoneal injection; settings: for Kp: brain/plasma
Procedure: The blood samples were anticoagulated with EDTA and stored at 4°C, then centrifuged at 4°C at 4000 r/min for 10 min. The plasma concentrations were detected simultaneously (plasma stored at −80°C refrigerator). The whole brain was stored at −80°C for later detection and then uniformly prepared into brain tissue homogenate to detect drug concentration. Use Excel to analyze the drug concentration—time data pharmacokinetic parameters through atrioventricular method.

[2] = tested on: heparanase (HPSE); assay: heparanase (HPSE) in brain of MCAO rats (ELISA); assay type: in vivo, Sprague–Dawley rats; settings: SYS18 high dose 15 mg/kg, 48 h, p < 0.05
Procedure: (§1) Rats were randomly divided into five groups: Sham group (n = 24), rats received sham operation; MCAO model group (n = 30); SYS18 low‐dose group (7.5 mg/kg, n = 30); SYS18 high‐dose group (15 mg/kg, n = 30); and Positive control group rats were intraperitoneally injected with edaravone (15 mg/kg, n = 30). The tested compound was dissolved in 20% polyoxyethylene castor oil and was administered 0.5 h before operation and 6, 12, 24, and 36 h after reperfusion. The measurements were carried out 48 h after the operation. Ten animals in each group were used to measure brain water content, and 10 animals in each group were used to detect Evans blue content in brain tissue. Ten animals in each group were used for determination of biochemical indicators and pathological observations and WB experiments.
(§2) Blood and brain sample were collected at 48 h after MCAO. After centrifugation at 4°C × 12,000 g for 10 min, the clear supernatant was stored at −80°C. Their concentrations of syndecan‐1, HS, and heparanase (HPSE) were determined using an ELISA kit. […] Substrates A and B were added, and the substrate was catalyzed by HRP to produce a product, which eventually converted under the action of a stop solution, and the absorbance (OD value) was measured at a wavelength of 450 nm on a microplate reader.

[3] = tested on: TNF‐α; assay: serum TNF-α in MCAO rats (ELISA); assay type: in vivo, Sprague–Dawley rats; settings: 15 mg/kg, 48 h, p < 0.05
Procedure: as §1
(§3) Blood sample was collected at 48 h after MCAO. After centrifugation at 4°C × 12,000 g for 10 min, the clear supernatant was stored at −80°C. The components of SOD, MDA, TNF‐α, and IL‐1β in the blood samples were measured according to the instructions of the assay kits.

[4] = tested on: MCAO rats; assay: brain water content (dry/wet weight) in MCAO rats; assay type: in vivo, Sprague–Dawley rats; settings: 48 h reperfusion, model 83.18% ± 0.71%
Procedure: as §1
The brain water content was evaluated by measuring difference between the dry and wet weights of brains. Briefly, after rats were sacrificed after 48 h of reperfusion, the brains were measured immediately to obtain the wet weights. Then, the brains were drying in a constant temperature oven at 100°C for 24 h, followed by measurements to obtain the dry weights. Brain water content was calculated according to the following formula, brain water content = 100% × (wet weight − dry weight)/wet weight.

[5] = tested on: mice model of increased peritoneal capillary permeability; assay: acetic acid-induced increased peritoneal capillary permeability model (Evans blue in peritoneal lavage); assay type: in vivo, Kunming mice
Procedure: Sixty Kunming mice were randomly divided into control group, SYS18 low, medium, and high‐dose groups (20, 40, and 80 mg/kg, respectively), and positive control group was given celecoxib (40 mg/kg), 10 mice in each group. The mice in each group were administrated with 0.2 mL/10 g once a day for three consecutive days.
One hour after the last administration, 2% Evans blue saline 0.1 mL/10 g was injected via the tail vein, and 0.6% acetic acid 0.2 mL/10 g was injected intraperitoneally immediately. Twenty minutes later, the mice were killed, the abdominal cavity was cut open, and the abdominal cavity was washed several times with 5 mL normal saline to collect washing fluid. The samples were centrifuged at 4700 r/min for 5 min, and the lateral absorbance at the wavelength of 620 nm was measured with a UV spectrophotometer to compare the differences between groups.
Acetic acid‐induced increased peritoneal capillary permeability in mice is a classic model of peripheral inflammation. Anti‐inflammatory effects of SYS18 were evaluated by using an increased peritoneal capillary permeability assay. After intravenous injection of Evans blue saline solution, intraperitoneal injection of acetic acid was used to increase peritoneal capillary permeability in mice. The peritoneal capillary permeability of mice in each group was compared by collecting peritoneal lavage fluid and measuring abdominal Evans blue absorbance.

[6] = tested on: SOD; assay: serum SOD in MCAO rats (kit); assay type: in vivo, Sprague–Dawley rats; settings: 15 mg/kg, 48 h
Procedure: as §1, §3

[7] = tested on: MDA; assay: serum MDA in MCAO rats (kit); assay type: in vivo, Sprague–Dawley rats; settings: 15 mg/kg (high dose), 48 h, p < 0.05
Procedure: as §1, §3

[8] = tested on: HS; assay: glycocalyx component HS in serum of MCAO rats (ELISA); assay type: in vivo, Sprague–Dawley rats; settings: SYS18 high dose 15 mg/kg, 48 h, p < 0.05
Procedure: as §1, §2

[9] = tested on: syndecan‐1; assay: glycocalyx component syndecan-1 in MCAO rats (ELISA); assay type: in vivo, Sprague–Dawley rats; settings: SYS18 high dose 15 mg/kg, 48 h, p < 0.05
Procedure: as §1, §2

[10] = tested on: claudin‐5; assay: immunofluorescence of claudin-5 in brain of MCAO rats; assay type: in vivo, Sprague–Dawley rats; settings: high-dose SYS18 (15 mg/kg)
Procedure: as §1
Immunofluorescence testing selects the same area as HE staining to observe and analyze the fluorescence level in the field of view. After deparaffinization of the paraffin sections to water, the tissue sections were subjected to antigen retrieval in a microwave oven in a retrieval box filled with citric acid antigen retrieval buffer (pH 6.0), and the sections were incubated overnight at 4°C with rabbit monoclonal anti‐MMP‐9 (1:100), rabbit polyclonal anti‐claudin‐5 (1:200). […]

COc1ccc(-c2nc(-c3ccccc3O)n(-c3ccc(S(N)(=O)=O)cc3)n2)c(O)c1 [SYS18, 4‐(3‐(2‐hydroxy‐4‐methoxyphenyl)‐5‐(2‐hydroxyphenyl)‐1H‐1,2,4‐triazol‐1‐yl) benzenesulfonamide]
Cmax ([1]; SD, rat, brain, ip, 15 mg/kg): 464 ng/g | MRT ([1]; SD, rat, brain, ip, 15 mg/kg): 7.15 h | k el ([1]; SD, rat, brain, ip, 15 mg/kg): 3.75e-05 s⁻¹ | Kp ([1]; SD, rat, ip, 15 mg/kg, B/P (ratio of total drug concentration in brain to plasma), rats, 15 mg/kg i.p., at 1–2 h): > 0.2 | Kp ([1]; SD, rat, ip, 15 mg/kg, B/P (ratio of total drug concentration in brain to plasma), rats, 15 mg/kg i.p., at 4–6 h): > 0.4 | Kp ([1]; SD, rat, ip, 15 mg/kg, cerebral‐blood ratio of area under the curve (AUC0‐t), rats, 15 mg/kg i.p.): > 0.4 | Tmax ([1]; SD, rat, in vivo, ip, 15 mg/kg): 2 h | half-life ([1]; SD, rat, in vivo, ip, 15 mg/kg): 5.12 h | CL/F ([1]; SD, rat, plasma, ip, 15 mg/kg): 16.7 mL/min/kg | Cmax ([1]; SD, rat, plasma, ip, 15 mg/kg): 1850 ng/mL | MRT ([1]; SD, rat, plasma, ip, 15 mg/kg): 3.87 h | Tmax ([1]; SD, rat, plasma, ip, 15 mg/kg): 1 h | Vd/F ([1]; SD, rat, plasma, ip, 15 mg/kg): 3 L/kg | half-life ([1]; SD, rat, plasma, ip, 15 mg/kg): 3.17 h | k el ([1]; SD, rat, plasma, ip, 15 mg/kg): 6.06e-05 s⁻¹ | AUC ([1]; SD, rat, plasma, ip, 15 mg/kg, AUC0‐inf_obs, blood, rats, 15 mg/kg i.p.): 8520 ng·h/mL | AUC ([1]; SD, rat, plasma, ip, 15 mg/kg, AUC0‐t, blood, rats, 15 mg/kg i.p.): 8440 ng·h/mL | AUC ([1]; SD, rat, plasma, ip, 15 mg/kg, area under the curve (AUC0‐t), blood, rats): 8440 ng·h/mL | AUMC0‐inf_obs ([1]; blood, rats, 15 mg/kg i.p.): 32940.745 ng/mg × h^2 | Tlag ([1]; blood, rats, 15 mg/kg i.p.): 0 h | AUC0‐inf_obs ([1]; brain, rats, 15 mg/kg i.p.): 3700.110 ng·h/mg | AUC0‐t ([1]; brain, rats, 15 mg/kg i.p.): 3504.387 ng·h/mg | AUMC0‐inf_obs ([1]; brain, rats, 15 mg/kg i.p.): 26458.752 ng/mg × h^2 | Tlag ([1]; brain, rats, 15 mg/kg i.p.): 0 h | area under the curve (AUC0‐t) ([1]; brain, rats, i.p.): 3500 ng·h/mg | HPSE in brain tissue vs model group [2]: decreased | TNF-α in serum vs model group [3]: significantly decreased | brain water content ([4]; 7.5 mg/kg (low dose), p > 0.05): 81.98% ± 1.18% | brain water content ([4]; 15 mg/kg (SYS18 high dose; edaravone)): 80.62% ± 1.73% | absorbance of Evans blue in peritoneal lavage fluid vs model group ([5]; SYS18 high dose 80 mg/kg once a day for 3 days): no statistical difference | absorbance of Evans blue in peritoneal lavage fluid vs model group ([5]; SYS18 low dose 20 mg/kg once a day for 3 days): did not significantly reduce | concentration of Evans blue in peritoneal lavage fluid vs model group ([5]; SYS18 medium dose 40 mg/kg once a day for 3 days): significantly reduced | SOD level in serum vs model group [6]: could improve SOD level in serum | MDA levels in serum vs model group [7]: reduced MDA levels in serum significantly | HS in serum vs model group [8]: decreased | syndecan-1 in brain tissue vs model group [9]: significantly increased | fluorescent intensity of claudin-5 vs model group [10]: fluorescent intensity increased

From article PMC11537802, “The Neuroprotection of 1,2,4‐Triazole Derivative by Inhibiting Inflammation and Protecting BBB Integrity in Acute Ischemic Stroke” (CNS Neuroscience & Therapeutics, 2024)
